Reference: ChEMBL document CHEMBL1141753, “Cytotoxic diterpenoids from the soft coral Sinularia microclavata” (J Nat Prod, 2005)
In brackets after ≈: the same amount, converted by molar mass.

Tests used:
Assay type in all cases: functional, cell-based
A549 = test: Cytotoxicity against human A549 cells by MTT assay
KB = test: Cytotoxicity against human KB cells by MTT assay
MCF7 = test: Cytotoxicity against human MCF7 cells by MTT assay

| Structure (SMILES) | IC50 (A549) | IC50 (KB) | IC50 (MCF7) |
| --- | --- | --- | --- |
| C=C1C(=O)O[C@]2(C)CC[C@@H]1C[C@@H](O)[C@@](C)(O)CC/C=C(\C)CC[C@@H]2O [CAPILLOLIDE] | 0.5 µg/mL (≈ 1.42 µM) | – | – |
| C/C1=C\[C@@H]2[C@H](CC[C@H](C)CC(=O)[C@@H]3O[C@]3(C)/C=C/C1=O)C2(C)C [MICROCLAVATIN] | – | 5 µg/mL (≈ 15.8 µM) | 20 µg/mL (≈ 63.2 µM) |
